“And” between values parts separate entries of the source, which are not always exact repeats. Identical values can stand only once.
Legend:
[1] = biological target: α-Glucosidase from baker's yeast; experiment: α-Glucosidase inhibitory assay (PNP-G substrate); assay type: biochemical, S. cerevisiae
Method: (§1) The α-glucosidase inhibitory assay was performed according to the protocol established in our laboratory. α-Glucosidase from baker’s yeast purchased from Sigma Chemical Co. The inhibition was measured spectrophotometrically at pH 7.0 and 37 °C employing 2 mM p-nitrophenyl α-D-glucopyranoside (PNP-G) as a substrate and 32 mU/mL of the enzyme, in 100 mM potassium phosphate buffer (enzyme stock). […] The absorbance (A) of 4-nitrophenol released by the hydrolysis of PNP-G was measured at 400 nm by Synergy HT Bio Tek microplate spectrophotometer. […] After incubating, 150 µL of the substrate was added and further incubated for 20 min at 37 °C. All assays are performed in 96-well microplates (Greiner bio-one 655101) in duplicate. The activity of samples was calculated as a percentage in comparison to a control (DMSO or MeOH instead of sample solution) according to the following equation: %Inhibition=ΔAcontrol-ΔAsample/ΔAcontrol×100%
The concentration required to inhibit activity of the enzyme by 50% (IC50) was calculated by regression analysis.

α-glucosidase = experiment: Kinetic analysis of α-glucosidase inhibition (Lineweaver–Burk plots); assay type: biochemical, S. cerevisiae; details: for type of inhibition against α-glucosidase: Lineweaver–Burk plots; for Vmax: maximum reaction velocity of α-glucosidase in presence of inhibitor
Method: Kinetic analysis was carried out to understand the interaction of tripalmitin with α-glucosidase. Lineweaver–Burk plots were constructed using different concentrations of substrate and tripalmitin.
as §1

[2] = standards purchased from Sigma-Aldrich

IC50 ([1]; pH 7.0, 37 °C, 2 mM PNP-G)	IC50 α-glucosidase ([1]; pH 7.0, 37 °C, 2 mM PNP-G)	type of inhibition against α-glucosidase (α-glucosidase)	Vmax (α-glucosidase)	α-glucosidase inhibition (result in words) ([1]; obtained from methanolysis reaction)	IC50 [1, 2]	Compound
3750 nM and 3670 nM	3.02 µg/mL	mixed inhibitor	0.0027 ± 0.0001 mmol/L/min	–	3200 nM	CCCCCCCCCCCCCCCC(=O)OCC(COC(=O)CCCCCCCCCCCCCCC)OC(=O)CCCCCCCCCCCCCCC [Compound 1, tripalmitin]
230 nM	–	–	–	–	–	CCCCCCCC/C=C\CCCCCCCC(=O)O [oleic acid]

Second part, the compound before the results:

Compound	IC50 ([1]; pH 7.0, 37 °C, 2 mM PNP-G)	IC50 α-glucosidase ([1]; pH 7.0, 37 °C, 2 mM PNP-G)	type of inhibition against α-glucosidase (α-glucosidase)	Vmax (α-glucosidase)	α-glucosidase inhibition (result in words) ([1]; obtained from methanolysis reaction)	IC50 [1, 2]
CCCCCCCCCCCCCCCCCC(=O)O [stearic acid]	810 nM	–	–	–	–	–
CCCCCCCCCCCCCCCC(=O)OC [methyl palmitate]	460 nM	0.13 µg/mL	mixed inhibitors	0.0024 ± 0.0002 mmol/L/min	–	–
OCC(O)CO [glycerol]	–	–	–	–	inactive	–
CCCCCCCC/C=C\CCCCCCCC(=O)OCC(COC(=O)CCCCCCC/C=C\CCCCCCCC)OC(=O)CCCCCCC/C=C\CCCCCCCC [triolein]	–	–	–	–	–	1520 nM
